Read-outs that look alike come from different tables or passages of the source.
Key:
Human Cot = Human Cot (Homo sapiens (Human), UniProt P41279); experiment: High Throughput Cot Biochemical Assay
TNFα = experiment: Cot Monocyte TNFα Cell Based Assay
[1] = IC50 HTRF, Cot HTRF (TR-FRET KinEASE) biochemical assay, 400 μM ATP
[2] = Homo sapiens, Monocyte, read-out: EC50 TNF, LPS-stimulated human monocytes, TNFα TR-FRET
[3] = IC50 HTRF, Cot HTRF (TR-FRET) biochemical assay
[4] = Homo sapiens, Monocyte, read-out: EC50 TNF, LPS-stimulated human monocytes, TNFα

Sequence of Human Cot (P41279 30-397): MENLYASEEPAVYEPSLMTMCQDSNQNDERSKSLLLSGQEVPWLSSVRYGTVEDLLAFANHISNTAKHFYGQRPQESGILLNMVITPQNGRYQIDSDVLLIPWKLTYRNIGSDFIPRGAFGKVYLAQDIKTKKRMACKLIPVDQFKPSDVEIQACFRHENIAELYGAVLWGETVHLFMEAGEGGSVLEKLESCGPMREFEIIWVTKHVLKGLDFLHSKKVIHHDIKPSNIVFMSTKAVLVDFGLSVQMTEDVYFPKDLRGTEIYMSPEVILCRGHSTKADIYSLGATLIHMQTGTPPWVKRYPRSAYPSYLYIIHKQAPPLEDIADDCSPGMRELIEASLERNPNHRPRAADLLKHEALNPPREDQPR

Row | SMILES | IC50 (Human Cot; [3]) | EC50 (TNFα; [4]) | other results
1 | CC(C)(C)CNc1c(C#N)cnc2c(C#N)cc(N[C@H](c3cn(C45CC(C4)C5)nn3)c3ccc(F)c4ncccc34)cc12 [Example 814, (S)-6-(((1-(bicyclo[1.1.1]pentan-1-yl)-1H-1,2,3-triazol-4-yl)(8-fluoroquinolin-5-yl)methyl)amino)-4-(neopentylamino)quinoline-3,8-dicarbonitrile] | – | – | IC50 (Human Cot; [1]): 2 nM; EC50 (TNFα; [2]): 16 nM
2 | CC(C)(C)CNc1c(C#N)cnc2c(C#N)cc(N[C@@H](c3ccc4cccnc4c3)c3cn(C4(C(F)F)CC4)nn3)cc12 [Example 818, (S)-6-(((1-(1-(difluoromethyl)-cyclopropyl)-1H-1,2,3-triazol-4-yl)(quinolin-7-yl)methyl)amino)-4-(neopentylamino)quinoline-3,8-dicarbonitrile] | – | – | IC50 (Human Cot; [1]): 6 nM; EC50 (TNFα; [2]): 176 nM
3 | Cc1nc(F)ccc1[C@H](Nc1cc(F)c2ncc(C#N)c(NCC(C)(C)C)c2c1)c1cn(C2(C(F)(F)F)CC2)nn1 [Example 513, (S)-8-fluoro-6-(((6-fluoro-2-methylpyridin-3-yl)(1-(1-(trifluoromethyl)cyclopropyl)-1H-1,2,3-triazol-4-yl)methyl)amino)-4-(neopentylamino)quinoline-3-carbonitrile] | 9 nM | 154 nM | –
4 | [2H][C@](Nc1cc(Cl)c2ncc(C#N)c(NCC(C)(C)C)c2c1)(c1ccc(F)nc1)c1cn(C2(C(F)F)CC2)nn1 [Example 518, (S)-8-chloro-6-(((1-(1-(difluoromethyl)-cyclopropyl)-1H-1,2,3-triazol-4-yl)(6-fluoropyridin-3-yl)methyl-d)amino)-4-(neopentylamino)quinoline-3-carbonitrile] | 7 nM | 207 nM | –
5 | COc1ccc2c([C@H](Nc3cc(Cl)c4ncc(C#N)c(NCC(C)(C)C)c4c3)c3cn(C4(C(F)(F)F)CC4)nn3)cccc2n1 [Example 930, (S)-8-chloro-6-(((2-methoxyquinolin-5-yl)(1-(1-(trifluoromethyl)cyclopropyl)-1H-1,2,3-triazol-4-yl)methyl)amino)-4-(neopentylamino)quinoline-3-carbonitrile] | – | – | IC50 (Human Cot; [1]): 33 nM; EC50 (TNFα; [2]): 504 nM
6 | Cc1nc(F)ccc1[C@H](Nc1cc(C#N)c2ncc(C#N)c(NCC(C)(C)C)c2c1)c1cn(Cc2c(F)cccc2F)nn1 [Example 601, (S)-6-(((1-(2,6-difluorobenzyl)-1H-1,2,3-triazol-4-yl)(6-fluoro-2-methylpyridin-3-yl)methyl)amino)-4-(neopentylamino)quinoline-3,8-dicarbonitrile] | 4 nM | 32 nM | –
7 | Cc1ncccc1[C@H](Nc1cc(Cl)c2ncc(C#N)c(Nc3cnc(F)c(F)c3)c2c1)c1cn(C2CC2)nn1 [Example 150, (S)-8-chloro-6-(((1-cyclopropyl-1H-1,2,3-triazol-4-yl)(2-methylpyridin-3-yl)methyl)amino)-4-((5,6-difluoropyridin-3-yl)amino)quinoline-3-carbonitrile] | 4 nM | 154 nM | –
8 | Cn1nccc1[C@H](Nc1cc(Cl)c2ncc(C#N)c(Nc3ccc(Cl)c(Cl)c3F)c2c1)c1c[nH]nn1 [Example 216, (S)-8-chloro-4-((3,4-dichloro-2-fluorophenyl)amino)-6-(((1-methyl-1H-pyrazol-5-yl)(1H-1,2,3-triazol-4-yl)methyl)amino)quinoline-3-carbonitrile] | 38 nM | 1190 nM | –
9 | CC(C)(C)CNc1c(C#N)cnc2c(Cl)cc(N[C@@H](c3cccnc3)c3c[nH]nn3)cc12 [Example 167, (S)-8-chloro-4-(neopentylamino)-6-((pyridin-3-yl(1H-1,2,3-triazol-4-yl)methyl)amino)quinoline-3-carbonitrile] | 4 nM | 506 nM | –
10 | CC(C)(C)CNc1c(C#N)cnc2c(Cl)cc(N[C@H](c3cn(C4(C(F)F)CC4)nn3)c3cccc4c(=O)[nH]ccc34)cc12 [Example 765, (S)-8-chloro-6-(((1-(1-(difluoromethyl)cyclopropyl)-1H-1,2,3-triazol-4-yl)(1-oxo-1,2-dihydroisoquinolin-5-yl)methyl)amino)-4-(neopentylamino)quinoline-3-carbonitrile] | 4 nM | 131 nM | –
11 | C[C@@H](Nc1c(C#N)cnc2c(Cl)cc(N[C@@H](c3cccnc3)c3c[nH]nn3)cc12)c1ccccc1 [Example 255, 8-chloro-4-(((R)-1-phenylethyl)amino)-6-(((S)-pyridin-3-yl(1H-1,2,3-triazol-4-yl)methyl)amino)quinoline-3-carbonitrile] | 10 nM | 766 nM | –
12 | CCN1CCC(n2cc([C@@H](Nc3cc(Cl)c4ncc(C#N)c(Nc5ccc(F)c(Cl)c5)c4c3)c3cc(C#N)cs3)nn2)CC1 [Example 372, (R)-8-chloro-4-((3-chloro-4-fluorophenyl)amino)-6-(((4-cyanothiophen-2-yl)(1-(1-ethylpiperidin-4-yl)-1H-1,2,3-triazol-4-yl)methyl)-amino)quinoline-3-carbonitrile] | 2 nM | 81 nM | –
13 | CC(C)(C)CNc1c(C#N)cnc2c(C#N)cc(N[C@H](c3cn(C4(CF)CC4)nn3)c3cccc4cnccc34)cc12 [Example 569] | – | – | IC50 (Human Cot; read-out: IC50 HTRF, Cot HTRF (TR-FRET) biochemical assay): 7 nM; EC50 (TNFα; read-out: EC50 TNF, LPS-stimulated human monocytes, TNFα): 171 nM
14 | [2H]c1c([C@@H](Nc2cc(Cl)c3ncc(C#N)c(NCC(C)(C)C)c3c2)c2ccc(F)nc2C)nnn1C1(C(F)(F)F)CC1 [Example 549, (S)-8-chloro-6-(((6-fluoro-2-methylpyridin-3-yl)(1-(1-(trifluoromethyl)cyclopropyl)-1H-1,2,3-triazol-4-yl-5-d)methyl)amino)-4-(neopentylamino)quinoline-3-carbonitrile] | 4 nM | 68 nM | –
15 | CC(C)(C)CNc1c(C#N)cnc2c(C#N)cc(N[C@H](c3cn(C4(C(F)(F)F)CC4)nn3)c3ccc(C#N)c4ncccc34)cc12 [Example 910, (S)-6-(((8-cyanoquinolin-5-yl)(1-(1-(trifluoromethyl)cyclopropyl)-1H-1,2,3-triazol-4-yl)methyl)amino)-4-(neopentylamino)quinoline-3,8-dicarbonitrile] | – | – | IC50 (Human Cot; [1]): 5 nM; EC50 (TNFα; [2]): 148 nM
16 | Cc1nc(F)ccc1[C@H](Nc1cc(-c2cncnc2)c2ncc(C#N)c(NCC(C)(C)C)c2c1)c1cn(C2(C(F)F)CC2)nn1 [Example 976] | – | – | IC50 (Human Cot; read-out: IC50 HTRF, Cot HTRF (TR-FRET KinEASE) biochemical assay, 400 μM ATP): 21 nM; EC50 (TNFα; read-out: EC50 TNF, LPS-stimulated human monocytes, TNFα TR-FRET): 276 nM
17 | Cc1nc(F)ccc1[C@H](Nc1cc(Cl)c2ncc(C#N)c(NCC3(C)CCC3)c2c1)c1cn(C2(C(F)F)CC2)nn1 [Example 502, (S)-8-chloro-6-(((1-(1-(difluoromethyl)-cyclopropyl)-1H-1,2,3-triazol-4-yl)(6-fluoro-2-methylpyridin-3-yl)methyl)-amino)-4-(((1-methylcyclobutyl)methyl)-amino) quinoline-3-carbonitrile] | 6 nM | 206 nM | –
18 | Cc1nc(F)ccc1[C@H](Nc1cc(C#N)c2ncc(C#N)c(NCC(C)(C)C)c2c1)c1cn(C2(C(F)(F)F)CC2)nn1 [Example 471, (S)-6-(((6-fluoro-2-methylpyridin-3-yl)(1-(1-(trifluoromethyl)cyclopropyl)-1H-1,2,3-triazol-4-yl)methyl)amino)-4-(neopentyl-amino)quinoline-3,8-dicarbonitrile] | 3 nM | 45 nM | –
19 | [2H]c1c([C@@H](Nc2cc(C#N)c3ncc(C#N)c(NCC(C)(C)C)c3c2)c2ccc(F)nc2C)nnn1C1(C(F)(F)F)CC1 [Example 574, (S)-6-(((6-fluoro-2-methylpyridin-3-yl)(1-(1-(trifluoromethyl)cyclopropyl)-1H-1,2,3-triazol-4-yl-5-d)methyl)amino)-4-(neopentylamino)quinoline-3,8-dicarbonitrile] | 4 nM | 86 nM | –
20 | Cc1nc(F)ccc1[C@H](Nc1cc(Cl)c2ncc(C#N)c(NCC(C)(C)C)c2c1)c1cn(C2CC(F)(F)C2)nn1 [Example 645, (S)-8-chloro-6-(((1-(3,3-difluorocyclobutyl)-1H-1,2,3-triazol-4-yl)(6-fluoro-2-methylpyridin-3-yl)methyl)amino)-4-(neopentylamino)quinoline-3-carbonitrile] | 11 nM | 66 nM | –
21 | Cc1ncsc1[C@H](Nc1cc(Cl)c2ncc(C#N)c(Nc3ccc(Cl)c(Cl)c3F)c2c1)c1cn(C2CCN(C(C)(C)C)CC2)nn1 [Example 236, (R)-6-(((1-(1-(tert-butyl)piperidin-4-yl)-1H-1,2,3-triazol-4-yl)(4-methylthiazol-5-yl)methyl)amino)-8-chloro-4-((3,4-dichloro-2-fluorophenyl)amino)quinoline-3-carbonitrile] | 9 nM | 172 nM | –
22 | CC(C)n1cc([C@@H](Nc2cc(Cl)c3ncc(C#N)c(Nc4ccc(F)c(Cl)c4)c3c2)c2cccn3nccc23)nn1 [Example 157, (S)-8-chloro-4-((3-chloro-4-fluorophenyl)amino)-6-(((1-isopropyl-1H-1,2,3-triazol-4-yl)(pyrazolo[1,5-a]pyridin-4-yl)methyl)amino)-quinoline-3-carbonitrile] | 5 nM | 127 nM | –
23 | Cn1ccc2c([C@H](Nc3cc(C#N)c4ncc(C#N)c(NCC(C)(C)C)c4c3)c3cn(C45CC(C4)C5)nn3)cccc2c1=O [Example 891, (S)-6-(((1-(bicyclo[1.1.1]pentan-1-yl)-1H-1,2,3-triazol-4-yl)(2-methyl-1-oxo-1,2-dihydroisoquinolin-5-yl)methyl)amino)-4-(neopentylamino)quinoline-3,8-dicarbonitrile] | – | – | IC50 (Human Cot; [1]): 1 nM; EC50 (TNFα; [2]): 12 nM

Source: patent US11066414B2, “Cot modulators and methods of use thereof” (Gilead Sciences, Inc., priority 2015, dated 2021)
